From patent US10272075B2, “Method and composition for treating an alpha adrenoceptor-mediated condition” (Vanda Pharmaceuticals, Inc., priority 2007, dated 2019)

Legend:
[1] = system: T1, alpha1-adrenoceptors; conditions: rabbit isolated prostate; cited from earlier work
T1 construct: antagonist potency (pA2) estimated by the Schild plot; other: rabbit isolated prostate, vs PE, 0.1-3 uM, 60 min incubat; other: rabbit isolated prostate, vs PE, single concentration 0.01 μ; pKb; other: rabbit isolated prostate

[2] = system: human isolated prostatic adenoma; conditions: human isolated prostatic adenoma obtained from BPH patients; cited from earlier work
[3] = system: conscious rats; conditions: i.v.; cited from earlier work
[4] = system: alpha 1 adrenoceptors; experiment: receptor affinity/potency profile, alpha 1 adrenoceptors; format: binding
[5] = system: anesthetized rats; experiment: PE-induced increase in intraurethral pressure (UP) and arterial blood pressure (BP) in anesthetized rats, oral administration; format: in vivo, rat; conditions: for UP100% value (dose of PE increasing baseline UP by 100%), statistical significance / effect on BP, from BP10% to BP100%: 45 min; for effect on basal BP levels / effect on basal UP: oral; for effect on basal BP levels: 25 and 45 minutes after administration; for effect on basal UP: measured 25 or 45 minutes later
Description: An experiment was conducted to evaluate the antagonistic effect of 4-[3-[4-(6-fluoro-1,2,-benzisoxazol-3-yl)-1-piperidinyl]propoxy]-3-methoxy-benzoic acid on the PE-induced increase in intraurethral pressure (UP) and arterial blood pressure (BP) in anesthetized rats.

[6] = system: dopamine, histamine and serotonin receptors (other than 5HT2A); experiment: receptor affinity/potency profile, dopamine, histamine and serotonin receptors; format: binding
[7] = system: anesthetized rats; experiment: PE-induced increase in intra-urethral pressure (UP) in anesthetized rats, intravenous administration; format: in vivo, rat; conditions: for effect on agonist (PE) effect on UP: PE dose range 10-300 ug/kg
Description: Briefly, catheters were inserted into the femoral vein of anesthetized male rats for drug administration and into the urethra through the bladder wall for measuring urethral pressure (UP). […] The different doses of PE (between 3 and 300 ug/kg in controls and up to 3000 ug/kg in treated animals) were administered intravenously under a volume of 1 mL/kg as a bolus with a 3 minute interval between each dose.

[8] = target: T2, rat alpha1A-adrenoceptor (Rattus norvegicus, UniProt P43140); experiment: binding studies, rat alpha1A-adrenoceptor; conditions: data communicated by Dr. Baroldi, Vanda Pharmaceuticals
T2 sequence (P43140 1-466): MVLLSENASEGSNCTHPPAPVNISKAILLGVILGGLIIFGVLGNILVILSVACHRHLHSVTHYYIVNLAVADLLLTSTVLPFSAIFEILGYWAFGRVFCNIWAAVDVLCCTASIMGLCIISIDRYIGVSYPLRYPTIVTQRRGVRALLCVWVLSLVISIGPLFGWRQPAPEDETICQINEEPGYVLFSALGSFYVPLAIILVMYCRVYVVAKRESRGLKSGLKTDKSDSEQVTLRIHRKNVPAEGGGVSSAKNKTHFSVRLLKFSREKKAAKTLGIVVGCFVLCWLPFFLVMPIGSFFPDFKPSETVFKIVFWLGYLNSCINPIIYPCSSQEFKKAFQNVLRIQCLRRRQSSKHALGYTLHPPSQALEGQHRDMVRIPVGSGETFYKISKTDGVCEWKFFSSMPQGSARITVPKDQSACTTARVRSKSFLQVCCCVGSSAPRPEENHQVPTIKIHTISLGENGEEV
Text: (§1) The pA2 of 4-[3-[4-(6-fluoro-1,2,-benzisoxazol-3-yl)-1-piperidinyl]propoxy]-3-methoxy-benzoic acid (7.50) is in accordance with the value previously found on the rabbit isolated prostate. […] Importantly, it is recognized that blockade of both alpha1A-and alpha1D-adrenoceptors is necessary for optimal clinical effect on BPH patients (Andersson K E, World J. Urol. 19: 390-96, 2002).

[9] = system: rats; experiment: bladder outlet obstruction-induced bladder dysfunction in rats, 1-week treatment; format: in vivo, rat; conditions: for effect on bladder hypertrophy secondary to outlet obstruction / effect on cystometric parameters: 1-week treatment; for effect on cystometric parameters: bladder outlet obstruction rats
Description: In another experiment, the effect of a 1-week treatment with 4-[3-[4-(6-fluoro-1,2,-benzisoxazol-3-yl)-1-piperidinyl]propoxy]-3-methoxy-benzoic acid, tamulosin, and a common vehicle on bladder outlet obstruction-induced bladder dysfunction in rats was evaluated. […] However, this latter effect was exclusively observed at the lowest dose tested (1 mg/kg/day).

[10] = DMPK studies in rats with [14C]-labelled compound, brain radioactivity; format: in vivo, rat; conditions: rats treated with [14C] compound
Text: 4-[3-[4-(6-fluoro-1,2,-benzisoxazol-3-yl)-1-piperidinyl]propoxy]-3-methoxy-benzoic acid appears not to cross the blood-brain barrier. Specifically, in DMPK studies using rats treated with [14C] […] Therefore, 4-[3-[4-(6-fluoro-1,2,-benzisoxazol-3-yl)-1-piperidinyl]propoxy]-3-methoxy-benzoic acid is particularly useful in conditions that are not mediated, to a substantial degree, by receptors in the brain.

[11] = target: T3, cloned human alpha1 D-adrenoceptor (Homo sapiens, UniProt P25100); experiment: binding studies, cloned human alpha1D-adrenoceptor; conditions: data communicated by Dr. Baroldi, Vanda Pharmaceuticals
T3 construct: expressed in transfected cells
T3 sequence (P25100 1-572): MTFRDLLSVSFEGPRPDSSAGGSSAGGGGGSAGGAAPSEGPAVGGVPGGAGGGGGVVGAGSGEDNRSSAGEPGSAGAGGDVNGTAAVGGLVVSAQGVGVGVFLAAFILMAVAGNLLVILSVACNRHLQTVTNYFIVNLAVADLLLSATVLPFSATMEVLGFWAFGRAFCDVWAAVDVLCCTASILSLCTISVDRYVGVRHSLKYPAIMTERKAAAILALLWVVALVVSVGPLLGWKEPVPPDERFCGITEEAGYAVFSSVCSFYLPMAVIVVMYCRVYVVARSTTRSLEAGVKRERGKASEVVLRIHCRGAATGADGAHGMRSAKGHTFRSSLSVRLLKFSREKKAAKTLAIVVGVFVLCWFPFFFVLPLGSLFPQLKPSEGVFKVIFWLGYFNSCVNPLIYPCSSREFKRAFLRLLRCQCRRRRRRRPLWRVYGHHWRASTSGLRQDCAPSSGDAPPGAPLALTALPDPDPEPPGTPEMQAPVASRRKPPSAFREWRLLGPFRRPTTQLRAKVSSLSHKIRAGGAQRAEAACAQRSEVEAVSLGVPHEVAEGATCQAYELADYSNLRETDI
Text: as §1

[12] = system: human alpha1-adrenoceptors expressed in the prostatic adenoma; experiment: norepinephrine (NE)-induced contraction in prostatic adenoma from BPH patients (isolated strips, organ bath); conditions: for effect on pEC50 of the second CRC to NE: 60 min incubation
Description: Briefly, human prostatic adenoma was obtained from 6 patients (mean age 71±5 years) undergoing transvesical adenomectomy of the prostate because of BPH. Prostatic strips were mounted in glass organ baths containing a modified Krebs-Henseleit solution (NaCl 114 mM, KCl 4.7 mM, CaCl2 2.5 mM, KH2PO4 1.2 mM, NaHCO3 25 mM, glucose 11.7 mM, ascorbic acid 1.1 mM (pH 7.4, gassed with 95% O2 and 5% CO2 at 37° C.) under 1.5 g tension. […] Strips having a contractile response <0.3 g were discarded. After washout and 60 min of re-equilibration to re-establish baseline tension, a first cumulative concentration-response curve to NE (in the range 0.1 μM-1 mM) was constructed until a plateau of contraction was reached. […] Only one concentration of antagonist was tested in a single strip. […] The quantity of DMSO in the organ baths was equal to 0.1%.

[13] = target: serotonin 5HT2A receptor (Homo sapiens, UniProt P28223); experiment: receptor affinity/potency profile, serotonin 5HT2A receptor; format: binding
[14] = system: alpha1-adrenoceptors; experiment: phenylephrine (PE)-induced contraction in the prostatic smooth muscle of male rabbits (isolated strips, organ bath); set-up: species or system rabbit
Description: (§2) It is well established in the literature that the rabbit is a good model for the pharmacology of the lower urinary tract. In particular, a correlation was found between affinities for cloned alpha1a-adrenoceptors and antagonist potency (pKb) values for several alpha1-adrenoceptors antagonists in the rabbit isolated prostate (Martin et al., J. Pharmacol. Expr. Ther. 282: 228-35, 1997). Briefly, following animal sacrifice, transverse preparations of the prostate were suspended vertically in 25 mL glass organ baths under a loading tension of 1 g and placed in an oxygenated, modified Krebs solution (NaCl 114 mM, KCl 4.7 mM, CaCl2 2.5 mM, KH2PO4 1.2 mM, NaHCO3 25 mM, glucose 11.7 mM (pH 7.4, gassed with 95% O2 and 5% CO2 at 37° C.). Propranolol (1 μM), desipramine (0.1 μM), deoxycorticosterone (3 μM) and normetanephrine (1 μM) were added to the Krebs-Henseleit solution in order to block beta-adrenoceptors, neuronal and extraneuronal uptake and catechol-O-methyl transferase, respectively. After 60 min of equilibration, smooth muscle strips were exposed to 30 μM PE to measure their viability. Strips having low contractile responses (<0.5 g) were discarded. Following a 30 min washout period, a first concentration-response curve (CRC) to PE (in the range 0.1 μM-1 mM) was obtained by cumulative additions as half-log unit concentrations increments. Then, tissues were washed for 60 min and incubated for 60 min with the test substance (at four different concentrations) before a second PE CRC was obtained (in the range 0.1 μM-10 mM). Only one concentration for the test substance was tested on each single smooth muscle strip.

[15] = system: T1, alpha1-adrenoceptors; experiment: as above; set-up: species or system rabbit; conditions: rabbit isolated prostate, vs PE
Description: as §2

[16] = system: rats; conditions: administered intraduodenally; cited from earlier work

Chain of serotonin 5HT2A receptor (P28223 whole entry): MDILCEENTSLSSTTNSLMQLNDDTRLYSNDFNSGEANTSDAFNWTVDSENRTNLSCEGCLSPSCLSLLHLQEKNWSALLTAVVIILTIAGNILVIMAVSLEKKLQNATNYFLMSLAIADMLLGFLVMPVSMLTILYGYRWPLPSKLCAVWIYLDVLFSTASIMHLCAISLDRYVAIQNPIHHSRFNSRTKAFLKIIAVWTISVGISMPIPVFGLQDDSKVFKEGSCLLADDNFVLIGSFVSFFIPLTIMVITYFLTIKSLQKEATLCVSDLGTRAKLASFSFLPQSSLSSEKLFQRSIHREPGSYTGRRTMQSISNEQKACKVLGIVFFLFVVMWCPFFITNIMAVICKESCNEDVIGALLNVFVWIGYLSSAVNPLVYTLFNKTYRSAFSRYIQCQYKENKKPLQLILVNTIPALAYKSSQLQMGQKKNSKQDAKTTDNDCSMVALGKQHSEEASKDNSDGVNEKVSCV

COc1cc2nc(N(C)CCCNC(=O)C3CCCO3)nc(N)c2cc1OC (centres unmarked) [alfuzosin]
pKb [1]: 7.25
pKb [2]: 7.78
potency relative to tamsulosin (fold less potent) in decreasing basal urethral pressure [3]: 10 fold

COc1cc(C(=O)O)ccc1OCCCN1CCC(c2noc3cc(F)ccc23)CC1 [4-[3-[4-(6-fluoro-1,2,-benzisoxazol-3-yl)-1-piperidinyl]propoxy]-3-methoxy-benzoic acid]
affinity/potency for alpha 1 adrenoceptors compared with alpha 2 adrenoreceptors [4]: slightly greater affinity/potency
affinity and potency among receptors ([4]; alpha 1 adrenoceptors): greatest affinity and is most potent
effect on PE-induced increase of basal UP ([5]; 0.5 mg/kg p.o.): ineffective
effect on PE-induced increase of basal UP ([5]; 1.5 mg/kg p.o.): slight effect
UP100% value (dose of PE increasing baseline UP by 100%), statistical significance ([5]; 1.5 mg/kg p.o.): reached the level of statistical significance
effect on BP, from BP10% to BP100% ([5]; 1.5 mg/kg p.o.): significant
effect on PE-induced increase of basal UP ([5]; 4.5 mg/kg p.o.): slight effect
UP100% value (dose of PE increasing baseline UP by 100%), statistical significance ([5]; 4.5 mg/kg p.o.): not
effect on BP, from BP10% to BP100% ([5]; 4.5 mg/kg p.o.): no effect
potency relative to tamsulosin (times less potent) on both UP and BP ([5]; oral route, 1.5 mg/kg at 45 min equipotent with 0.3 mg/kg tamsulosin): about 5 times
effect on basal BP levels [5]: significantly decreased
effect on basal UP [5]: no effect
activity with respect to the dopamine, histamine and serotonin receptors (other than 5HT2A) [6]: very weak if any activity
effect on delta UP (over baseline) induced by PE ([7]; 10 ug/kg i.v., PE 100 ug/kg): statistically significant inhibitory effect
effect on delta UP (over baseline) induced by PE ([7]; 33.3 ug/kg i.v., PE 30-100 and 150 ug/kg): statistically significant inhibitory effect
dose response curve to PE (urethral pressure) ([7]; 10, 33.3 and 100 ug/kg i.v.): dose-dependently shifted to the right
potency relative to tamsulosin (times less potent) ([7]; intravenous route, anesthetized rats): approximately 10 times
effect on agonist (PE) effect on UP ([7]; test substance 100 ug/kg i.v.): statistically significant decrease
IC50 [8]: 11.5 nM
effect on bladder hypertrophy secondary to outlet obstruction [9]: devoid of effect
effect on cystometric parameters [9]: devoid of significant effect
effect on amplitude of unstable contractions ([9]; exclusively at the lowest dose tested (1 mg/kg/day)): significantly decreased
radioactivity concentrations in the brain (blood-brain barrier crossing) [10]: none of the animals had measurable radioactivity concentrations in the brain
IC50 [11]: 17.8 nM
effect on Emax of NE concentration-response curve [12]: no effect
effect on pEC50 of the second CRC to NE [12]: concentration-dependent shift
potency relative to tamsulosin (times less potent) ([12]; human alpha1-adrenoceptors in prostatic adenoma): approximately 100 times
pA2 estimated by the Schild Plot ([12]; human prostatic adenoma, vs NE, dose-ratios corrected by solvent group): 7.50
affinity and potency among receptors [13]: greatest affinity and is most potent
effect on Emax of PE concentration-response curve [14]: unaffected
effect on PE-induced contractions ([14]; n=6 for each dose, 0.1-3 uM): concentration-dependently antagonized
antagonist potency (pA2) estimated by the Schild plot ([15]; 0.1-3 uM, 60 min incubation): 7.47

CCOc1ccccc1OCCN[C@H](C)Cc1ccc(OC)c(S(N)(=O)=O)c1 [tamsulosin, reference compound]
effect on basal BP levels [5]: significantly decreased
effect on basal UP [5]: no effect
pKb [1]: 9.74
effect on agonist (PE) effect on UP ([7]; tamsulosin 10 ug/kg): statistically significant decrease
effect on bladder hypertrophy secondary to outlet obstruction [9]: devoid of effect
effect on cystometric parameters [9]: completely ineffective
effect on Emax of NE concentration-response curve [12]: no effect
effect on pEC50 of the second CRC to NE [12]: induced a shift
effect on Emax of PE concentration-response curve [14]: unaffected
potency of tamsulosin relative to the test substance (times more potent) ([14]; rabbit preparation, based on similar PE pEC50 values): 300 times
pA2 calculated from the dose-ratio of pEC50 values ([15]; single concentration 0.01 μM): 10.21

C[C@H](Cc1cc2c(c(C(N)=O)c1)N(CCCO)CC2)NCCOc1ccccc1OCC(F)(F)F [silodosin]
potency relative to tamsulosin (times less potent) on UP [16]: 2.8 times
